Measurements: patent US11096923B2, “Pharmaceutical composition containing polymyxin B/trimethoprim based therapeutics” (University of Rochester, priority 2016, dated 2021)
Read-outs that look alike come from different tables or passages of the source.

Assays:
[1] = tested on: P. aeruginosa strain PA01; format: cell-based, Pseudomonas aeruginosa
Protocol: (§1) Spontaneous resistance to the indicated test agent(s) was measured for P. aeruginosa strain PA01 and S. aureus strain UAMS-1 using two liquid culture approaches. […] Growth was measured using the BacterioScan s216Dx laser microbial growth monitor, with optical measurements taken every 3 minutes over 40 hours. Following 40 hours, samples were plated for to measure viable colony forming units and re-tested for drug susceptibility.
(§2) To determine if these colonies represented untreated cells vs. resistant cells, 8 individual colonies from each treatment condition were randomly selected and tested for MICs.
(§3) Using an automated laser microbial growth monitor, the optical profiles of these cultures were measured continuously over time. […] Again 8 colonies were selected at random from each treatment group.

[2] = tested on: S. aureus UAMS-1 biofilms; experiment: Biofilm susceptibility; format: cell-based, Staphylococcus aureus; details: established S. aureus biofilm, 24 hrs treatment, 32×MIC
From the text: Bacterial strains used in these studies include the conventional laboratory strains Pseudomonas aeruginosa PA01 and Staphylococcus aureus UAMS-1, both of which are antibiotic susceptible and capable of forming robust biofilms. See […], Thomas J R, Nelson […]. Role of the accessory gene regulator (agr) in pathogenesis of staphylococcal osteomyelitis. Infection and immunity 1995; 63:3373-3380. Seven clinical keratitis isolates of Pseudomonas aeruginosa, were collected from the Flaum Eye Institute, Rochester N.Y. and 25 clinical isolates of Staphylococcus aureus from geographically distinct regions of the country where purchased from International Health Management Associates (IHMA; Schaumburg, Ill.). For experiments requiring planktonic cultures, the indicated organism was grown overnight in Luria-Bertani broth (LB; […] Biofilms were established by inoculating individual wells of flat-bottom polystyrene plates (Falcon, Corning Life Sciences; Durham, N.C.) with overnight cultures of the indicated organism into 200 ul of fresh LB to a final concentration of 1×10^7 CFU ml^-1. Plates were placed in a 37° C.-humidified incubator for 72 hours to allow static biofilm formation. Non-adherent cells were aspirated and biofilms were washed twice with phosphate-buffered saline prior to each experiment. […] After 24 hrs the remaining media and non-adherent cells were removed, biofilms were suspended in 0.8% NaCl and plated to quantify surviving bacteria. […] Biofilms were treated in increasing increments ranging from 0 to 64×MIC.

S. aureus strain UAMS-1 = format: cell-based, Staphylococcus aureus; details: 1×MIC, laser microbial growth monitor over 40 hours
Protocol: as §1, §2, §3

P. aeruginosa = experiment: MIC of clinical P. aeruginosa ocular isolates (antibiotic susceptibility profiles); format: cell-based, Pseudomonas aeruginosa; details: Pseudomonas aeruginosa, read-out: Minimum Inhibitory Concentration
From the text: A series of genotyping and biological assays were used as a preliminary means to evaluate the clonality of clinical P. aeruginosa isolates collected, as follows. Genomic DNA was purified from each isolate using Qiagen DNeasy kits (Hilden, Germany) and used as a template for polymerase chain reactions to detect the presence of the virulence factors exoS, exoY, exoU, exoT, and perV using previously published primers (Table 1). See Allewelt M, Coleman F T, Grout M, Priebe G P, Pier G B. Acquisition of expression of the Pseudomonas aeruginosa ExoU cytotoxin leads to increased bacterial virulence in a murine model of acute pneumonia and systemic spread. Infection and immunity 2000; 68:3998-4004, Lomholt J A, Poulsen K, Kilian M. Epidemic population structure of Pseudomonas aeruginosa: evidence for a clone that is pathogenic to the eye and that has a distinct combination of virulence factors. Infection and immunity 2001; 69, and Ledbetter E C, Mun J J, Kowbel D, Fleiszig S M. Pathogenic phenotype and genotype of Pseudomonas aeruginosa isolates from spontaneous canine ocular infections. Investigative ophthalmology & visual science 2009; 50. […] See Institute C. Performance Standards for Antimicrobial Susceptibility Testing: Twenty-fifth Informational Supplement. Each isolate's ability to form biofilms was quantified. To do so, wells of a polystyrene plate containing 72-hour established biofilms were washed with 0.8% NaCl to remove non adherent cells and stained with crystal violet. To quantify biofilm staining, plates were washed 3 times with H2O, stain was suspended in 30% glacial acetic acid and the optical density (OD600nm) of each well was determined using an automated plate reader, as previously described. See Jacobs A C, Blanchard C E, Catherman S C, Dunman P M, Murata Y. An ribonuclease T2 family protein modulates Acinetobacter baumannii abiotic surface colonization. PloS one 2014; 9.

[3] = tested on: planktonic P. aeruginosa cells; experiment: Antimicrobial kill curves; format: cell-based, Pseudomonas aeruginosa; details: 2× MIC, 4 hours post-treatment
Protocol: Overnight cultures of the indicated organism were used to inoculate (1:100 dilution) 100 ml of fresh media and grown to mid-exponential phase. […] Aliquots were taken at 1, 2, 3, 4, and 24 hours, serial diluted and plated for colony forming units.

MRSA keratitis isolates = MRSA keratitis isolates collected between 1993 and 2012; cited from earlier work

With `COc1c(N2C[C@@H]3CCCN[C@@H]3C2)c(F)cc2c(=O)c(C(=O)O)cn(C3CC3)c12` [Moxifloxacin, moxifloxacin] the “resistance of recovered cells on MIC retest” value [1] was 2 ×MIC, the “time until growth of treated culture” value ([1]; P. aeruginosa, 1×MIC, laser microbial growth monitor over 40 hours) was “approximately 22 hours” and the “reduction in biofilm-associated CFU” value [2] was 4 log. For the same compound, the “start of outgrowth of treated culture” value (S. aureus strain UAMS-1) was 26 h, the MIC (P. aeruginosa; P. aeruginosa ocular isolate RW01 (cornea)) was 0.25 µg/mL and the MIC (P. aeruginosa; P. aeruginosa ocular isolate RW02 (cornea)) was 0.25 µg/mL. For the same compound, the MIC (P. aeruginosa; P. aeruginosa ocular isolate RW03 (cornea)) was 0.25 µg/mL, the MIC (P. aeruginosa; P. aeruginosa ocular isolate RW04 (conjunctiva)) was 0.25 µg/mL and the MIC (P. aeruginosa; P. aeruginosa ocular isolate RW05 (cornea)) was 0.125 µg/mL. The MIC (P. aeruginosa; P. aeruginosa ocular isolate RW06 (cornea)) was 0.5 µg/mL, the MIC (P. aeruginosa; P. aeruginosa ocular isolate RW07 (cornea)) was 0.125 µg/mL and the “reduction in CFU at hour 4” value [3] was 5 log.
In the case of `COc1cc(Cc2cnc(N)nc2N)cc(OC)c1OC` [trimethoprim], the isolates displaying resistance (MRSA keratitis isolates) is given as 11.5%.
